This passage reports Kd and IC50 results from ChEMBL document CHEMBL1158466, “Discovery of novel 2-aminobenzamide inhibitors of heat shock protein 90 as potent, selective and orally active antitumor agents” (J Med Chem, 2009).

A short description of assay [1]: Binding affinity to pig spleen Hsp90 ATPase pocket by Bradford assay. The format is tissue-based, Sus scrofa.
The target in assay [2] is Heat shock protein HSP90 (Homo sapiens, UniProt P07900+P08238). The format is cell-based. To be noted: au565.

Broadly, the Kd is the equilibrium constant for the complex coming apart. A lower Kd goes with higher affinity. The IC50 is the concentration at which inhibition is half-maximal. A higher IC50 goes with lower potency. In turn, `CC1(C)CC(=O)c2c(CC3CC3)nn(-c3ccc(C(N)=O)c(N[C@H]4CC[C@H](O)CC4)c3)c2C1` came in with a Kd in assay [1] of 41 nM. For the same compound, the IC50 in assay [2] stood at 46 nM.
In turn, `CC1(C)CC(=O)c2c(C(F)F)nn(-c3ccc(C(N)=O)c(N[C@H]4CC[C@H](O)CC4)c3)c2C1` yielded a Kd in assay [1] of 98 nM. Further, 16 nM corresponded to half-maximal inhibition in assay [2] (IC50).
In turn, `CCCCCc1cc(-n2c(C)cc3c2CC(C)(C)CC3=O)ccc1C(N)=O` returned a Kd in assay [1] of 1960 nM. In addition, the IC50 in assay [2] is > 10000 nM.
For `COCCNc1cc(-n2c(C)cc3c2CC(C)(C)CC3=O)ccc1C(N)=O`, binding in assay [1] was characterised by a dissociation constant (Kd) of 390 nM. Moreover, in assay [2], the IC50 is > 10000 nM.
Turning to `COc1cc(Nc2cc(-n3c(C)cc4c3CC(C)(C)CC4=O)ccc2C(N)=O)cc(OC)c1OC`, the Kd in assay [1] stood at 220 nM. The compound also returned an IC50 in assay [2] of 490 nM.
`Cc1cn(-c2ccc(C(N)=O)c(NCCN3CCOCC3)c2)c2c1C(=O)CC(C)(C)C2`: the Kd in assay [1] was 294 nM. Further, in assay [2], the IC50 was > 4000 nM.
With `COc1cc(Nc2cc(-n3ccc4c3CC(C)(C)CC4=O)ccc2C(N)=O)cc(OC)c1OC`, the Kd in assay [1] was determined as 0.59 nM. This compound also had an IC50 in assay [2] of 1830 nM.
In the same order, the values of `Cc1nn(-c2ccc(C(N)=O)c(NC3CCOCC3)c2)c2c1C(=O)CC(C)(C)C2` are 43 nM and 50 nM.
For the compound `Cc1c2c(n(-c3ccc(C(N)=O)c(N[C@H]4CC[C@H](O)CC4)c3)c1C)CC(C)(C)CC2=O`, the Kd in assay [1] was 86 nM. The compound also had an IC50 in assay [2] of 64 nM.
In assay [1], `COc1cc(Nc2cc(-n3cc(C)c4c3CCCC4=O)ccc2C(N)=O)cc(OC)c1OC` yielded a Kd of 940 nM. This compound returned an IC50 in assay [2] of 1610 nM.
Regarding `Cc1nn(-c2ccc(C(N)=O)c(NCc3ccco3)c2)c2c1C(=O)CC(C)(C)C2`, the Kd in assay [1] stood at 216 nM. The IC50 in assay [2] is > 1000 nM.
In assay [1], `Cc1cn(-c2ccc(C(N)=O)c(N3CCNCC3)c2)c2c1C(=O)CC(C)(C)C2` registered a Kd of 843 nM. Further, in assay [2], the IC50 was > 7000 nM.
On to `COc1cc(Nc2cc(-n3cc(C)c4c3CC(C)(C)CC4=O)ccc2C(N)=O)cc(OC)c1OC`, for which the Kd in assay [1] was 390 nM. For the same compound, the IC50 in assay [2] was 46 nM.
In assay [1], `Cc1nn(-c2ccc(C(N)=O)c(NC3CCC3)c2)c2c1C(=O)CC(C)(C)C2` registered a Kd of 114 nM. In addition, half-maximal inhibition in assay [2] (IC50) required 229 nM.
For `Cc1nn(-c2ccc(C(N)=O)c(N[C@H]3CC[C@H](O)CC3)c2)c2c1C(=O)CC(C)(C)C2`, in that order: 16 nM and 30 nM.
In the same order, the values of `Cc1nn(-c2ccc(C(N)=O)c(NCC3CC3)c2)c2c1C(=O)CC(C)(C)C2` are 51 nM and 184 nM.
Take `CCc1nn(-c2ccc(C(N)=O)c(N[C@H]3CC[C@H](O)CC3)c2)c2c1C(=O)CC(C)(C)C2`: binding in assay [1] was put at a Kd of 20 nM. This compound also had an IC50 in assay [2] of 9 nM.
In the same order, the values of `Cc1cc2c(n1-c1ccc(C(N)=O)cc1)CC(C)(C)CC2=O` are 3730 nM and > 100000 nM.
Compound `Cc1cc2c(n1-c1ccc(C(N)=O)c(Nc3ccccc3)c1)CC(C)(C)CC2=O` showed a Kd in assay [1] of 370 nM. The IC50 in assay [2] stood at 6400 nM.
Take `Cc1cc2c(n1-c1ccc(C(N)=O)c(Sc3ccccc3)c1)CC(C)(C)CC2=O`: the dissociation constant Kd in assay [1] worked out at 1060 nM. In assay [2], the IC50 is > 10000 nM.
For `Cc1cn(-c2ccc(C(N)=O)c(N[C@@H](C)c3ccccc3)c2)c2c1C(=O)CC(C)(C)C2`, in that order: 1020 nM and 418 nM.
Compound `COCC(COC)Nc1cc(-n2nc(C(F)(F)F)c3c2CC(C)(C)CC3=O)ccc1C(N)=O` displayed a Kd in assay [1] of 78 nM. In assay [2], this compound came in with an IC50 of 181 nM.
Turning to `CCCCNc1cc(-n2c(C)cc3c2CC(C)(C)CC3=O)ccc1C(N)=O`, in assay [1], the affinity, expressed as Kd, was 390 nM. In addition, the IC50 in assay [2] is > 10000 nM.
Regarding `CCCCOc1cc(-n2c(C)cc3c2CC(C)(C)CC3=O)ccc1C(N)=O`, in assay [1], the Kd was > 50000 nM. Besides, in assay [2], the IC50 was > 10000 nM.
The compound `CC1(C)CC(=O)c2c(C(F)(F)F)nn(-c3ccc(C(N)=O)c(N[C@H]4CC[C@@H](O)CC4)c3)c2C1` showed a Kd in assay [1] of 530 nM.
